Measurements published in ChEMBL document CHEMBL1649218, “New treatment option for second-stage African sleeping sickness: in vitro and in vivo efficacy of aza analogs of DB289” (Antimicrob Agents Chemother, 2009).
≈ marks a conversion by molar mass, not a printed value. Calls of active or inactive are those of the source. The rule behind the calls is not given here.

Experiments:
[1] = system: Trypanosoma brucei brucei; assay: Antitrypanosomal activity against Trypanosoma brucei brucei GVR35 infected in NMRI mouse CNS model assessed as survival of mouse at 10 mg/kg, po for 10 days; format: functional
[2] = system: Trypanosoma brucei rhodesiense; assay: Antitrypanosomal activity against wild-type Trypanosoma brucei rhodesiense STIB900 infected in NMRI mouse assessed as survival of mouse at 100 mg/kg, po for 4 days; format: functional
[3] = system: Trypanosoma brucei rhodesiense; assay: Antitrypanosomal activity against pentamidine-resistant Trypanosoma brucei rhodesiense STIB900 by Alamar blue assay; format: functional, organism-based
[4] = system: Trypanosoma brucei rhodesiense; assay: Antitrypanosomal activity against melasoprol-resistant Trypanosoma brucei rhodesiense STIB900 by Alamar blue assay; format: functional, organism-based
[5] = system: Trypanosoma brucei gambiense; assay: Antitrypanosomal activity against Trypanosoma brucei gambiense K03048 by Alamar blue assay; format: functional, organism-based
[6] = system: Trypanosoma brucei gambiense; assay: Antitrypanosomal activity against Trypanosoma brucei gambiense ITMAP141267 by Alamar blue assay; format: functional, organism-based
[7] = system: Trypanosoma brucei gambiense; assay: Antitrypanosomal activity against Trypanosoma brucei gambiense STIB930 by Alamar blue assay; format: functional, organism-based
[8] = system: Trypanosoma brucei brucei; assay: Antitrypanosomal activity against Trypanosoma brucei brucei BS221 by Alamar blue assay; format: functional, organism-based
[9] = system: Trypanosoma brucei brucei; assay: Antitrypanosomal activity against Trypanosoma brucei brucei AT1KO by Alamar blue assay; format: functional, organism-based
[10] = system: Trypanosoma brucei rhodesiense; assay: Ratio of IC50 for pentamidine-resistant Trypanosoma brucei rhodesiense STIB900 to IC50 for wild-type Trypanosoma brucei rhodesiense STIB900; format: functional
[11] = system: Trypanosoma brucei rhodesiense; assay: Ratio of IC50 for melasoprol-resistant Trypanosoma brucei rhodesiense STIB900 to IC50 for wild-type Trypanosoma brucei rhodesiense […]; format: functional
[12] = Ratio of IC50 for Trypanosoma brucei gambiense K03048 to IC50 for wild-type Trypanosoma brucei rhodesiense STIB900; format: functional
[13] = Ratio of IC50 for Trypanosoma brucei gambiense ITMAP141267 to IC50 for wild-type Trypanosoma brucei rhodesiense […]; format: functional
[14] = Ratio of IC50 for Trypanosoma brucei gambiense STIB930 to IC50 for wild-type Trypanosoma brucei rhodesiense […]; format: functional
[15] = system: Trypanosoma brucei brucei; assay: Ratio of IC50 for Trypanosoma brucei brucei AT1KO to IC50 for Trypanosoma brucei brucei BS221; format: functional
[16] = system: Trypanosoma brucei gambiense; assay: Ratio of IC50 for Trypanosoma brucei gambiense K03048 to IC50 for Trypanosoma brucei gambiense STIB930; format: functional
[17] = system: Trypanosoma brucei rhodesiense; assay: Antitrypanosomal activity against wild-type Trypanosoma brucei rhodesiense STIB900 infected in NMRI mouse assessed as cure from infection at 20 mg/kg, ip for 4 days; format: functional, organism-based; design: dose 20 mg/kg
[18] = system: Trypanosoma brucei rhodesiense; assay: Antitrypanosomal activity against wild-type Trypanosoma brucei rhodesiense STIB900 infected in NMRI mouse assessed as cure from infection at 10 mg/kg, ip for 4 days; format: functional, organism-based; design: dose 10 mg/kg
[19] = system: Trypanosoma brucei rhodesiense; assay: Antitrypanosomal activity against wild-type Trypanosoma brucei rhodesiense STIB900 infected in NMRI mouse assessed as survival of mouse at 20 mg/kg, ip for 4 days; format: functional; settings: route intraperitoneal
[20] = system: Trypanosoma brucei rhodesiense; assay: Antitrypanosomal activity against wild-type Trypanosoma brucei rhodesiense STIB900 infected in NMRI mouse assessed as survival of mouse at 0.5 mg/kg, ip for 4 days; format: functional; settings: route intraperitoneal
[21] = system: Trypanosoma brucei brucei; assay: Antitrypanosomal activity against Trypanosoma brucei brucei GVR35 infected in NMRI mouse CNS model assessed as cure from infection at 20 mg/kg, ip for 10 days; format: functional, organism-based; design: dose 20 mg/kg
[22] = system: Trypanosoma brucei brucei; assay: Antitrypanosomal activity against Trypanosoma brucei brucei GVR35 infected in NMRI mouse CNS model assessed as cure from infection at 10 mg/kg, ip for 10 days; format: functional, organism-based; design: dose 10 mg/kg
[23] = system: Trypanosoma brucei brucei; assay: Antitrypanosomal activity against Trypanosoma brucei brucei GVR35 infected in NMRI mouse CNS model assessed as survival of mouse at 20 mg/kg, ip for 5 days; format: functional; settings: route intraperitoneal
[24] = system: Trypanosoma brucei brucei; assay: Antitrypanosomal activity against Trypanosoma brucei brucei GVR35 infected in NMRI mouse CNS model assessed as survival of mouse at 20 mg/kg, ip for 10 days; format: functional; settings: route intraperitoneal
[25] = system: Trypanosoma brucei brucei; assay: Antitrypanosomal activity against Trypanosoma brucei brucei GVR35 infected in NMRI mouse CNS model assessed as survival of mouse at 10 mg/kg, ip for 10 days; format: functional; settings: route intraperitoneal
[26] = system: Trypanosoma brucei rhodesiense; assay: Antitrypanosomal activity against wild-type Trypanosoma brucei rhodesiense STIB900 by Alamar blue assay; format: functional, organism-based
[27] = system: Trypanosoma brucei rhodesiense; assay: Antitrypanosomal activity against wild-type Trypanosoma brucei rhodesiense STIB900 infected in NMRI mouse assessed as cure from infection at 50 mg/kg, po for 4 days; format: functional, organism-based; design: dose 50 mg/kg
[28] = system: Trypanosoma brucei rhodesiense; assay: Antitrypanosomal activity against wild-type Trypanosoma brucei rhodesiense STIB900 infected in NMRI mouse assessed as survival of mouse at 50 mg/kg, po for 4 days; format: functional
[29] = system: Trypanosoma brucei rhodesiense; assay: Antitrypanosomal activity against wild-type Trypanosoma brucei rhodesiense STIB900 infected in NMRI mouse assessed as survival of mouse at 25 mg/kg, po for 4 days; format: functional
[30] = system: Trypanosoma brucei rhodesiense; assay: Antitrypanosomal activity against wild-type Trypanosoma brucei rhodesiense STIB900 infected in NMRI mouse assessed as survival of mouse at 5 mg/kg, po for 4 days; format: functional
[31] = system: Trypanosoma brucei brucei; assay: Antitrypanosomal activity against Trypanosoma brucei brucei GVR35 infected in NMRI mouse CNS model assessed as cure from infection at 100 mg/kg, po for 5 days; format: functional, organism-based; design: dose 100 mg/kg
[32] = system: Trypanosoma brucei brucei; assay: Antitrypanosomal activity against Trypanosoma brucei brucei GVR35 infected in NMRI mouse CNS model assessed as cure from infection at 25 mg/kg, po for 5 days; format: functional, organism-based; design: dose 25 mg/kg
[33] = system: Trypanosoma brucei brucei; assay: Antitrypanosomal activity against Trypanosoma brucei brucei GVR35 infected in NMRI mouse CNS model assessed as cure from infection at 100 mg/kg, po for 10 days; format: functional, organism-based; design: dose 100 mg/kg
[34] = system: Trypanosoma brucei brucei; assay: Antitrypanosomal activity against Trypanosoma brucei brucei GVR35 infected in NMRI mouse CNS model assessed as cure from infection at 10 mg/kg, po for 10 days; format: functional, organism-based; design: dose 10 mg/kg
[35] = system: Trypanosoma brucei brucei; assay: Antitrypanosomal activity against Trypanosoma brucei brucei GVR35 infected in NMRI mouse CNS model assessed as survival of mouse at 100 mg/kg, po for 5 days; format: functional
[36] = system: Trypanosoma brucei brucei; assay: Antitrypanosomal activity against Trypanosoma brucei brucei GVR35 infected in NMRI mouse CNS model assessed as survival of mouse at 25 mg/kg, po for 5 days; format: functional
[37] = system: Trypanosoma brucei brucei; assay: Antitrypanosomal activity against Trypanosoma brucei brucei GVR35 infected in NMRI mouse CNS model assessed as survival of mouse at 100 mg/kg, po for 10 days; format: functional
[38] = system: Trypanosoma brucei brucei; assay: Antitrypanosomal activity against Trypanosoma brucei brucei GVR35 infected in NMRI mouse CNS model assessed as survival of mouse at 50mg/kg, po for 10 days; format: functional
[39] = system: Trypanosoma brucei brucei; assay: Antitrypanosomal activity against Trypanosoma brucei brucei GVR35 infected in NMRI mouse CNS model assessed as survival of mouse at 25 mg/kg, po for 10 days; format: functional
[40] = system: Trypanosoma brucei rhodesiense; assay: Antitrypanosomal activity against wild-type Trypanosoma brucei rhodesiense STIB900 infected in NMRI mouse assessed as cure from infection at 0.5 mg/kg, ip for 4 days; format: functional, organism-based; design: dose 0.5 mg/kg
[41] = system: Trypanosoma brucei rhodesiense; assay: Antitrypanosomal activity against wild-type Trypanosoma brucei rhodesiense STIB900 infected in NMRI mouse assessed as survival of mouse at 10 mg/kg, ip for 4 days; format: functional; settings: route intraperitoneal
[42] = system: Trypanosoma brucei rhodesiense; assay: Antitrypanosomal activity against wild-type Trypanosoma brucei rhodesiense STIB900 infected in NMRI mouse assessed as survival of mouse at 5 mg/kg, ip for 4 days; format: functional; settings: route intraperitoneal
[43] = system: Trypanosoma brucei rhodesiense; assay: Antitrypanosomal activity against wild-type Trypanosoma brucei rhodesiense STIB900 infected in NMRI mouse assessed as survival of mouse at 2.5 mg/kg, ip for 4 days; format: functional; settings: route intraperitoneal
[44] = system: Trypanosoma brucei brucei; assay: Antitrypanosomal activity against Trypanosoma brucei brucei GVR35 infected in NMRI mouse CNS model assessed as cure from infection at 20 mg/kg, ip for 5 days; format: functional, organism-based; design: dose 20 mg/kg
[45] = system: Trypanosoma brucei rhodesiense; assay: Antitrypanosomal activity against wild-type Trypanosoma brucei rhodesiense STIB900 infected in NMRI mouse assessed as cure from infection at 25 mg/kg, po for 4 days; format: functional, organism-based; design: dose 25 mg/kg
[46] = system: Trypanosoma brucei brucei; assay: Antitrypanosomal activity against Trypanosoma brucei brucei GVR35 infected in NMRI mouse CNS model assessed as survival of mouse at 50 mg/kg, po for 5 days; format: functional
[47] = system: Trypanosoma brucei brucei; assay: Antitrypanosomal activity against Trypanosoma brucei brucei GVR35 infected in NMRI mouse CNS model assessed as survival of mouse at 75 mg/kg, po for 5 days; format: functional

| SMILES | IC50 [3] [µg/mL] | IC50 [4] [µg/mL] | IC50 [5] [µg/mL] | IC50 [6] [µg/mL] | IC50 [7] [µg/mL] | IC50 [8] [µg/mL] | IC50 [9] [µg/mL] | Ratio IC50 [10] | Ratio IC50 [11] | Ratio IC50 [12] | Ratio IC50 [13] | Ratio IC50 [14] | Ratio IC50 [15] | Ratio IC50 [16] | Activity [17] | Activity [18] | MSD [19] [days] | MSD [20] [days] | MSD [23] [days] | MSD [24] [days] | other results |
| --- | --- | --- | --- | --- | --- | --- | --- | --- | --- | --- | --- | --- | --- | --- | --- | --- | --- | --- | --- | --- | --- |
| N=C(NO)c1ccc(-c2ccc(-c3ccc(/C(N)=N/O)cn3)o2)cc1 |  |  |  |  |  |  |  |  |  |  |  |  |  |  |  |  |  |  |  |  | Activity [1]: Active; MSD [2]: >54 days |
| N=C(N)c1ccc(-c2ccc(-c3ccc(C(=N)N)cn3)o2)nc1 | 0.0679 (≈ 0.222 µM) | 0.0643 (≈ 0.21 µM) | 0.0395 (≈ 0.129 µM) | 0.0162 (≈ 0.0529 µM) | 0.0351 (≈ 0.115 µM) | 0.006 (≈ 0.0196 µM) | 0.106 (≈ 0.347 µM) | 10.5 | 10 | 6.1 | 2.5 | 5.4 | 17.8 | 14 | Active | Active | >60 | >31 | >132.3 | >180 | Activity [21]: Active; Activity [22]: inactive; MSD [25]: 95.6 days |
| Nc1nc(N)nc(Nc2ccc([As]3SCC(CO)S3)cc2)n1 (configuration not stated) [MELARSOPROL] | 0.0282 | 0.0567 | 0.0031 | 0.0027 | 0.0053 | 0.0036 | 0.0187 | 20.9 | 42 | 2.3 | 2 | 3.9 | 5.2 | 14 |  |  |  |  |  |  | IC50 [26]: 0.0014 µg/mL |
| CO/N=C(\N)c1ccc(-c2ccc(-c3ccc(/C(N)=N/OC)cn3)o2)nc1 |  |  |  |  |  |  |  |  |  |  |  |  |  |  |  |  |  |  |  |  | Activity [27]: Active; MSD [28]: >60 days; MSD [29]: >42 days; MSD [30]: >40.25 days; Activity [31]: Active; Activity [32]: inactive; Activity [33]: Active; Activity [34]: inactive; MSD [35]: >180 days; MSD [36]: >95.8 days; MSD [37]: >180 days; MSD [38]: >153.4 days; MSD [39]: >132.4 days; MSD [1]: 70 days |
| N=C(N)c1ccc(-c2ccc(-c3ccc(C(=N)N)cn3)o2)cc1 | 0.0225 (≈ 0.0737 µM) | 0.0292 (≈ 0.0956 µM) | 0.0084 (≈ 0.0275 µM) | 0.0057 (≈ 0.0187 µM) | 0.0084 (≈ 0.0275 µM) | 0.0028 (≈ 0.00917 µM) | 0.0429 (≈ 0.14 µM) | 9.6 | 12.4 | 3.5 | 2.4 | 3.5 | 15.4 | 14 | Active | Active | >60 | 29 | 102.5 | >128.2 | IC50 [26]: 0.0024 µg/mL (≈ 0.00786 µM); Activity [40]: inactive; MSD [41]: >60 days; MSD [42]: >54.5 days; MSD [43]: >49 days; Activity [44]: inactive |
| CO/N=C(\N)c1ccc(-c2ccc(-c3ccc(/C(N)=N\O)cn3)o2)cc1 |  |  |  |  |  |  |  |  |  |  |  |  |  |  |  |  |  |  |  |  | Activity [45]: Active; MSD [29]: >60 days; MSD [30]: >39.5 days; Activity [31]: Active; MSD [35]: >180 days; MSD [46]: >157.2 days; MSD [47]: >164.8 days |
